Test results from patent US20140234988A1, “Methods for Diagnosing and Treating Medical Conditions Associated With Oxidative Stress” (priority 2011, published 2014).

Legend:
[1] = target: human serum albumin, binding site II (plasma of patients with cirrhosis) (Homo sapiens, UniProt P02768); details: cirrhotic patients vs controls
Description: (§1) In blood samples derived from the study population (9 consecutive patients with acute-on-chronic liver failure (ACLF) being evaluated for extracorporeal liver support and 20 patients with cirrhosis who were candidates for liver transplantation), albumin was fractionated by HPLC as previously described (Kawai, K. et al. (2001) Tokai J. Exp. Clin. Med. 26, 93-99) resulting in three protein fractions representing cysteine 34 as free sulfhydryl form (HMA), as mixed disulfide (HNA1), or in a higher oxidation state (HNA2).
(§2) Plasma albumin concentrations were determined by using an automatic clinical chemical analyser (EuroLyser, Eurolyser Diagnostica, Salzburg, Austria).
(§3) Serum samples were diluted with PBS and adjusted to an albumin concentration of 40 μM. Based on the 40 μM sample, a dilution series with final concentrations of 20 μM, 10 μM, and 5 μM albumin (in PBS) was made. Each of these samples (250 μl) was mixed with the same volume of 10 μM DS (Sigma-Aldrich, Vienna, Austria) solution. […] DS was detected by means of determining fluorescence at 482/350 nm using a Hitachi F1050 (Merck) detector. Quantificaton via the peak heights was done using the EZ Chrom Elite chromatography software (VWR, Vienna, Austria). From the straight line obtained by the graph of ln (free DS) vs. albumin, the albumin concentration binding half of the ligand was calculated and given as IC50 (μmol/l).

[2] = target: human serum albumin, binding site II (plasma of patients with sepsis) (Homo sapiens, UniProt P02768); details: septic group vs controls
Protocol: as §2
Serum samples were diluted with PBS and adjusted to an albumin concentration of 40 μM. Based on the 40 μM sample, a dilution series with final concentrations of 20 μM, 10 μM, and 5 μM albumin (in PBS) was made. Each of these samples (250 μl) was mixed with the same volume of 10 μM DS (Sigma-Aldrich, Vienna, Austria) solution. Unbound DS molecules were separated from the plasma components via ultrafiltration (Ultrafree-MC reg. Cellulose 30K, Millipore, Vienna, Austria) at 500 g for 10 min at room temperature. 150 μl of the flow through were put into HPLC vials. As a control, 10 μM DS was diluted with the same volume of Millipore water and ultrafiltered as described. For an external standard curve, a dilution series of DS with Millipore water (10 μM, 5 μM, 2.5 μM, and 1.25 μM) was prepared. 20 μl of the filtrate were then injected to the HPLC system. […] DS was detected by means of determining fluorescence at 482/350 nm using a Hitachi F1050 (Merck) detector. Quantificaton via the peak heights was done using the EZ Chrom Elite chromatography software (VWR, Vienna, Austria). From the straight line obtained by the graph of ln (free DS) vs. albumin, the albumin concentration binding half of the ligand was calculated and given as IC50 (μmol/l). […]

[3] = target: human serum albumin, binding site II (plasma of patients with acute-on-chronic liver failure, ACLF) (Homo sapiens, UniProt P02768); details: ACLF group vs controls
human serum albumin, binding site II (plasma of patients with acute-on-chronic liver failure, ACLF), sequence (P02768 25-609): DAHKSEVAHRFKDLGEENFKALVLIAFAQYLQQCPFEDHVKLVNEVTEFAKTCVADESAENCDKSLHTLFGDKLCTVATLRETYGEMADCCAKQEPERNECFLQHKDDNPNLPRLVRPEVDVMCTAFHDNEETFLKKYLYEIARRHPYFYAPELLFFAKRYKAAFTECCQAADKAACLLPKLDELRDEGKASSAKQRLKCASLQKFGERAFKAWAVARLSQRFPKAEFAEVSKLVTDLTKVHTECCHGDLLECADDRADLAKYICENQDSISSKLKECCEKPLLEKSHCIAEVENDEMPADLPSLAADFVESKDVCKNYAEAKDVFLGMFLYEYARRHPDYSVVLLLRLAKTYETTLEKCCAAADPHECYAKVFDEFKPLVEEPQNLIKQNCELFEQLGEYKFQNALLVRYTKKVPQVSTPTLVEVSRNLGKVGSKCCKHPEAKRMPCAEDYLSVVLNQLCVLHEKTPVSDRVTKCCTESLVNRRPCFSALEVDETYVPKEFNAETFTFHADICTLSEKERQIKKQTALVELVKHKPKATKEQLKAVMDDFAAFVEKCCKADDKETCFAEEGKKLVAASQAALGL
Description: as §1, §2, §3

human serum albumin, binding site II (plasma of patients with sepsis), sequence (P02768 25-609): as above
human serum albumin, binding site II (plasma of patients with cirrhosis), sequence (P02768 25-609): as above

Compound: CN(C)c1cccc2c(S(=O)(=O)N(C)CC(=O)O)cccc12 [dansylsarcosine]
- DS binding, compared with controls [1]: no difference in DS binding between controls and cirrhotic patients
- IC50-values, compared with controls [2]: IC50-values were increased in the septic and ACLF group
- IC50-values, compared with controls [3]: IC50-values were increased in the septic and ACLF group
